Laboratory results from US9695155B2, “Herbicidal substituted pyrimidinyloxy benzene compounds” (E. I. DU PONT DE NEMOURS AND COMPANY, priority 2013, dated 2017).

Columns and labels:
ragweed [1] = test: Test C preemergence; type: in vivo, Ambrosia elatior; details: for Ragweed plant response rating: preemergence; for Plant response rating, Ragweed: Preemergence, 62 g ai/ha, scale 0 to 100, 0 no effect, 100 complete control
Procedure, shortened: (§1)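 Injury was assessed visually against controls 13 to 15 days after application, with 0 meaning no effect and 100 full control; missing entries are shown as a dash. Preemergence sprays hit seeded loam–sand soil, postemergence sprays hit 1- to 4-leaf plants.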

wheat, winter = test: Test C preemergence; type: in vivo, Triticum aestivum; details: for Wheat plant response rating: preemergence; for Plant response rating, Wheat: Preemergence, 62 g ai/ha, scale 0 to 100, 0 no effect, 100 complete control
Procedure, shortened: as §1

waterhemp = test: Test C preemergence; type: in vivo, Amaranthus rudis; details: for Waterhemp plant response rating: preemergence; for Plant response rating, Waterhemp: Preemergence, 62 g ai/ha, scale 0 to 100, 0 no effect, 100 complete control
Procedure, shortened: as §1

ragweed [2] = test: Test A postemergence; type: in vivo, Ambrosia elatior
Procedure, shortened: (§2)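 Pre- and postemergence greenhouse screen. Soil: loam + sand. Spray carrier: solvent mixture, non-phytotoxic, with surfactant. Post timing at 1–2 leaves, height 2–10 cm. Readout: visual injury on a 0–100 scale roughly 10 days after application, untreated plants as reference.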

velvetleaf = test: Test C preemergence; type: in vivo, Abutilon theophrasti; details: for Velvetleaf plant response rating: preemergence; for Plant response rating, Velvetleaf: Preemergence, 62 g ai/ha, scale 0 to 100, 0 no effect, 100 complete control
Procedure, shortened: as §1

yellow nutsedge = test: Test C preemergence; type: in vivo, Cyperus esculentus; details: for Nutsedge, Yellow plant response rating: preemergence; for Plant response rating, Nutsedge, Yellow: Preemergence, 62 g ai/ha, scale 0 to 100, 0 no effect, 100 complete control
Procedure, shortened: as §1

ragweed [3] = test: Test A preemergence; type: in vivo, Ambrosia elatior; details: for Ragweed plant response rating (0 to 100 scale): 125 g ai/ha
Procedure, shortened: as §2

large (Lg) crabgrass = test: Test C preemergence; type: in vivo, Digitaria sanguinalis; details: for Crabgrass, Large plant response rating: preemergence; for Plant response rating, Crabgrass, Large: Preemergence, 62 g ai/ha, scale 0 to 100, 0 no effect, 100 complete control
Procedure, shortened: as §1

lambsquarters = test: Test C preemergence; type: in vivo, Chenopodium album; details: for Lambsquarters plant response rating: preemergence; for Plant response rating, Lambsquarters: Preemergence, 62 g ai/ha, scale 0 to 100, 0 no effect, 100 complete control
Procedure, shortened: as §1

giant foxtail = test: Test C preemergence; type: in vivo, Setaria faberii; details: for Foxtail, Giant plant response rating: preemergence; for Plant response rating, Foxtail, Giant: Preemergence, 62 g ai/ha, scale 0 to 100, 0 no effect, 100 complete control
Procedure, shortened: as §1

blackgrass [4] = test: Test C preemergence; type: in vivo, Alopecurus myosuroides; details: for Blackgrass plant response rating: preemergence; for Plant response rating, Blackgrass: Preemergence, 62 g ai/ha, scale 0 to 100, 0 no effect, 100 complete control
Procedure, shortened: as §1

kochia = test: Test A postemergence; type: in vivo, Kochia scoparia
Procedure, shortened: as §2

galium = test: Test A postemergence; type: in vivo, Galium aparine
Procedure, shortened: as §2

blackgrass [5] = test: Test A postemergence; type: in vivo, Alopecurus myosuroides
Procedure, shortened: as §2

barnyardgrass = test: Test C preemergence; type: in vivo, Echinochloa crus-galli; details: for Barnyardgrass plant response rating: preemergence; for Plant response rating, Barnyardgrass: Preemergence, 62 g ai/ha, scale 0 to 100, 0 no effect, 100 complete control
Procedure, shortened: as §1

soybean = test: Test C preemergence; type: in vivo, Glycine max; details: for Soybean plant response rating: preemergence; for Plant response rating, Soybean: Preemergence, 62 g ai/ha, scale 0 to 100, 0 no effect, 100 complete control
Procedure, shortened: as §1

pigweed = test: Test C preemergence; type: in vivo, Amaranthus retroflexus; details: for Pigweed plant response rating: preemergence; for Plant response rating, Pigweed: Preemergence, 62 g ai/ha, scale 0 to 100, 0 no effect, 100 complete control
Procedure, shortened: as §1

oilseed rape = test: Test C preemergence; type: in vivo, Brassica napus; details: for Oilseed Rape plant response rating: preemergence; for Plant response rating, Oilseed Rape: Preemergence, 62 g ai/ha, scale 0 to 100, 0 no effect, 100 complete control
Procedure, shortened: as §1

[6] = 16 g ai/ha, scale 0 to 100 (0 no effect, 100 complete control)
[7] = 125 g ai/ha, scale 0 (no effect) to 100 (complete control)
[8] = 31 g ai/ha, 0 to 100 scale, 0 no effect, 100 complete control
[9] = 125 g ai/ha, 0 to 100 scale, 0 no effect, 100 complete control
[10] = 500 g ai/ha, 0 to 100 scale where 0 is no effect and 100 is complete control

SMILES: FC(F)Oc1cnn(-c2c(Cl)cccc2Oc2ncc(Cl)cn2)c1 [Compound 258]
- Ragweed plant response rating (ragweed [1]; [6]): 0
- Ragweed plant response rating (ragweed [1]; [7]): 90
- Plant response rating, Ragweed (ragweed [1]): 80
- Wheat plant response rating (wheat, winter; [6]): 0
- Wheat plant response rating (wheat, winter; [7]): 25
- Plant response rating, Wheat (wheat, winter): 5
- Waterhemp plant response rating (waterhemp; [6]): 100
- Waterhemp plant response rating (waterhemp; [7]): 100
- Plant response rating, Waterhemp (waterhemp): 98
- Plant response rating, Ragweed (ragweed [2]; [8]): 10
- Plant response rating, Ragweed (ragweed [2]; [9]): 50
- Velvetleaf plant response rating (velvetleaf; [6]): 80
- Velvetleaf plant response rating (velvetleaf; [7]): 100
- Plant response rating, Velvetleaf (velvetleaf): 100
- Nutsedge, Yellow plant response rating (yellow nutsedge; [6]): 5
- Nutsedge, Yellow plant response rating (yellow nutsedge; [7]): 100
- Plant response rating, Nutsedge, Yellow (yellow nutsedge): 95
- Plant response rating, Ragweed (ragweed [3]; 31 g ai/ha, 0 to 100 scale where 0 is no effect and 100 is complete control, visual, approximately 10 days): 0
- Ragweed plant response rating (0 to 100 scale) (ragweed [3]): 40
- Crabgrass, Large plant response rating (large (Lg) crabgrass; [6]): 100
- Crabgrass, Large plant response rating (large (Lg) crabgrass; [7]): 100
- Plant response rating, Crabgrass, Large (large (Lg) crabgrass): 100
- Lambsquarters plant response rating (lambsquarters; [6]): 65
- Lambsquarters plant response rating (lambsquarters; [7]): 98
- Plant response rating, Lambsquarters (lambsquarters): 98
- Foxtail, Giant plant response rating (giant foxtail; [6]): 75
- Foxtail, Giant plant response rating (giant foxtail; [7]): 100
- Plant response rating, Foxtail, Giant (giant foxtail): 100
- Blackgrass plant response rating (blackgrass [4]; [6]): 0
- Blackgrass plant response rating (blackgrass [4]; [7]): 90
- Plant response rating, Blackgrass (blackgrass [4]): 90
- Plant response rating, Kochia (kochia; [8]): 90
- Plant response rating, Kochia (kochia; [9]): 100
- Plant response rating, Galium (galium; [8]): 70
- Plant response rating, Galium (galium; [9]): 90
- Plant response rating, Blackgrass (blackgrass [5]; [8]): 20
- Plant response rating, Blackgrass (blackgrass [5]; [9]): 50
- Barnyardgrass plant response rating (barnyardgrass; [6]): 45
- Barnyardgrass plant response rating (barnyardgrass; [7]): 100
- Plant response rating, Barnyardgrass (barnyardgrass): 90
- Soybean plant response rating (soybean; [6]): 35
- Soybean plant response rating (soybean; [7]): 95
- Plant response rating, Soybean (soybean): 75
- Pigweed plant response rating (pigweed; [6]): 100
- Pigweed plant response rating (pigweed; [7]): 100
- Plant response rating, Pigweed (pigweed): 100
- Oilseed Rape plant response rating (oilseed rape; [6]): 80
- Oilseed Rape plant response rating (oilseed rape; [7]): 100
- Plant response rating, Oilseed Rape (oilseed rape): 100

SMILES: N#Cc1cn(-c2c(C#N)cccc2Oc2ncc(Cl)cn2)nn1 [Compound 273]
- Ragweed plant response rating (ragweed [1]; [6]): 10
- Ragweed plant response rating (ragweed [1]; [7]): 85
- Plant response rating, Ragweed (ragweed [1]): 55
- Wheat plant response rating (wheat, winter; [6]): 0
- Wheat plant response rating (wheat, winter; [7]): 5
- Plant response rating, Wheat (wheat, winter): 0
- Waterhemp plant response rating (waterhemp; [6]): 45
- Waterhemp plant response rating (waterhemp; [7]): 100
- Plant response rating, Waterhemp (waterhemp): 98
- Plant response rating, Ragweed (ragweed [2]; [9]): 40
- Plant response rating, Ragweed (ragweed [2]; [10]): 90
- Velvetleaf plant response rating (velvetleaf; [6]): 10
- Velvetleaf plant response rating (velvetleaf; [7]): 85
- Plant response rating, Velvetleaf (velvetleaf): 85
- Nutsedge, Yellow plant response rating (yellow nutsedge; [6]): 0
- Nutsedge, Yellow plant response rating (yellow nutsedge; [7]): 35
- Plant response rating, Nutsedge, Yellow (yellow nutsedge): 5
- Ragweed plant response rating (0 to 100 scale) (ragweed [3]): 70
- Ragweed plant response rating (ragweed [3]; [10]): 80
- Crabgrass, Large plant response rating (large (Lg) crabgrass; [6]): 90
- Crabgrass, Large plant response rating (large (Lg) crabgrass; [7]): 100
- Plant response rating, Crabgrass, Large (large (Lg) crabgrass): 95
- Lambsquarters plant response rating (lambsquarters; [6]): 35
- Lambsquarters plant response rating (lambsquarters; [7]): 100
- Plant response rating, Lambsquarters (lambsquarters): 100
- Foxtail, Giant plant response rating (giant foxtail; [6]): 0
- Foxtail, Giant plant response rating (giant foxtail; [7]): 90
- Plant response rating, Foxtail, Giant (giant foxtail): 75
- Blackgrass plant response rating (blackgrass [4]; [6]): 0
- Blackgrass plant response rating (blackgrass [4]; [7]): 70
- Plant response rating, Blackgrass (blackgrass [4]): 5
- Plant response rating, Kochia (kochia; [9]): 70
- Plant response rating, Kochia (kochia; [10]): 100
- Plant response rating, Galium (galium; [9]): 80
- Plant response rating, Galium (galium; [10]): 100
- Plant response rating, Blackgrass (blackgrass [5]; [9]): 60
- Plant response rating, Blackgrass (blackgrass [5]; [10]): 80
- Barnyardgrass plant response rating (barnyardgrass; [6]): 0
- Barnyardgrass plant response rating (barnyardgrass; [7]): 85
- Plant response rating, Barnyardgrass (barnyardgrass): 25
- Soybean plant response rating (soybean; [6]): 5
- Soybean plant response rating (soybean; [7]): 65
- Plant response rating, Soybean (soybean): 40
- Pigweed plant response rating (pigweed; [6]): 55
- Pigweed plant response rating (pigweed; [7]): 100
- Plant response rating, Pigweed (pigweed): 100
- Oilseed Rape plant response rating (oilseed rape; [6]): 0
- Oilseed Rape plant response rating (oilseed rape; [7]): 100
- Plant response rating, Oilseed Rape (oilseed rape): 80
